Measured values published in US10995087B2, “Crystal form of URAT1 inhibitor, and preparation method therefor” (MEDSHINE DISCOVERY INC., priority 2017, dated 2021).
Values after ≈ are worked out from the molar mass of the structure shown. Where two headings read alike, the source gives them in different places. Each block holds one compound with its values, some of them ahead of it.

Tests used:
[1] = Solubility test of crystal form A in 9 vehicles (HPLC); assay type: physicochemical; conditions: for Solubility (4 hrs) / Solubility (24 hrs) / solubility at 4 h / solubility at 24 h: 37° C.; for Solubility (4 hrs) / solubility at 4 h: stirring 4 hrs; for Solubility (24 hrs) / solubility at 24 h: stirring 24 hrs; for solubility at 4 h / solubility at 24 h: thermodynamic from solid
Method: 1. Preparation of diluent and mobile phase
Diluent: 300 mL of pure water and 100 mL of pure acetonitrile were accurately measured, and mixed in a 1 L glass bottle, ultrasonically degassed for 10 minutes for use.
Mobile phase A: 0.1% phosphoric acid aqueous solution
For example: 2.0 mL of phosphoric acid was added into 2000 mL of water, and the mixture was ultrasounded for 10 minutes, mixed evenly, and naturally cooled to room temperature, as mobile phase A.
Mobile phase B: acetonitrile.
2. Preparation of the control solution (using crystal form A per se as the control sample)
5 mg of crystal form A was accurately weighed and placed in a sample bottle, and 10 mL of diluent was added, and the mixture was ultrasounded for 5 minutes, naturally cooled to room temperature, mixed evenly, and labeled as working control solution STD-1.
5 mg of crystal form A was accurately weighed and placed in a sample bottle, and 10 mL of diluent was added, and the mixture was ultrasounded for 5 minutes, naturally cooled to room temperature, mixed evenly, and labeled as working control solution STD-2.
3. Preparation of linear solution
The aforementioned working control solution STD-1 was successively diluted by 1 time, 10 times, 100 times, 1000 times and 2000 times, and was labeled as linear solutions L1, L2, L3, L4 and L5.
6 mg of crystal form A was accurately weighed respectively and added into 8 mL glass bottle, and then 3 mL of different solvents (0.1N hydrochloric acid solution, 0.01N hydrochloric acid solution, purified water, pH 3.8 buffer solution, pH 4.5 buffer solution, pH 5.5 buffer solution, pH 6.0 buffer solution, pH 7.4 buffer solution, pH 6.8 buffer solution) were accurately added to prepare the suspensions. A stirrer was added to the above suspensions, and the suspensions were fully stirred at 37° C. in dark. After stirring, the solids in the pH 7.4 buffer solution and the pH 6.8 buffer solution were completely dissolved, 6 mg of crystal form A were accurately weighed respectively, and added to the buffer solutions, and stirred fully again to prepare suspensions. After stirring for 4 hours and 24 hours, samples were taken and centrifuged. The solutions were filtered with a filter membrane and their concentrations were measured by HPLC.

[2] = Plasma pharmacokinetics in male and female SD rats after single intravenous and intragastric administration; assay type: in vivo; conditions: rat; for clearance: read-out: plasma clearance rate; for Vd: read-out: steady state apparent volume of distribution (Vdss); for bioavailability: PO 4.0 mg/kg vs IV 2.0 mg/kg; for Cmax: read-out: peak concentration (Cmax); for Tmax: read-out: peak time Tmax
Source text: Experimental purpose: Plasma pharmacokinetics of male and female SD rats after single intravenous injection and intragastric administration as well as repeated intragastric administration for 8 days for the compound of formula (I).
1. In this experiment, 12 SD rats, half males and half females, were provided by Beijing Vital River Laboratory Animal Technologies Co., Ltd., and were divided into 2 groups according to the similarity of their body weights, each group had 3 females and 3 males. The details of the administration protocol and blood collection protocol were shown in Table 5 and Table 6, respectively.
All animals fasted every other night before the first day of administration and resumed to be fed 4 hours after the administration.
Note: DMSO means dimethyl sulfoxide; HP-β-CD means hydroxypropyl-β-cyclodextrin; MC means methyl cellulose;
IV means intravenous administration; PO means intragastric administration.
Sample Collection and Analysis Methods
0.15 mL of blood samples from experimental animals were collected by jugular vein puncture, and immediately transferred to labeled centrifuge tubes containing K2-EDTA (0.5 M), and the plasma was separated by centrifugation within 30 minutes (centrifugation condition: 3000 g, 4° C., 15 minutes). Plasma concentrations were measured using a validated LC/MS/MS analysis method; plasma concentrations were processed using a non-compartment model of WinNonlin™ Version 6.3 (Pharsight, Mountain View, Calif.) pharmacokinetics software, and the pharmacokinetic parameters were calculated using the linear logarithmic trapezoid method.

[3] = target: T1, uric acid transporter URAT1 (Homo sapiens, UniProt Q96S37); assay: Uptake cell inhibition experiment: URAT1-mediated 14C-uric acid uptake in HEK293A-URAT1 cells; assay type: cell-based
T1 construct: expressed in transfected cells; host or cells: HEK293A, stably overexpressing URAT1; the empty vector control is HEK293A-pcDNA3.1
T1 sequence (Q96S37 1-553): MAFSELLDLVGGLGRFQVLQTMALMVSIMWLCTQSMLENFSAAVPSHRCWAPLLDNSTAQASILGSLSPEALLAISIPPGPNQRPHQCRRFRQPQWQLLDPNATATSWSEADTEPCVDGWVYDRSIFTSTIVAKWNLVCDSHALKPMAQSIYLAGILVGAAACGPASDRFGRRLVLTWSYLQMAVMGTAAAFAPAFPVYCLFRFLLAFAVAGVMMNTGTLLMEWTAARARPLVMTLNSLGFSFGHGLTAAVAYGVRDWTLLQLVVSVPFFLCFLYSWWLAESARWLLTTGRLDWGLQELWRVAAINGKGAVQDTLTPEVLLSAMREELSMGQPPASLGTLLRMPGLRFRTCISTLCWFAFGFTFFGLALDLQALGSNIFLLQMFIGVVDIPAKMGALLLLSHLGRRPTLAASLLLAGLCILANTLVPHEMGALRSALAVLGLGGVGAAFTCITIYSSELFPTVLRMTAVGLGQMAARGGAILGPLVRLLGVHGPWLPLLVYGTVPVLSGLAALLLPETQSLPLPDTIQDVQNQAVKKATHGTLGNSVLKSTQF
Method: 1) DMSO was used as the solvent of a 200-fold working solution, the storing solution was diluted to a 200-fold working solution at each administration concentration.
2) Hanks balanced salt solution (without Cl^−) was used as the solvent for the 2-fold working solution of transport protein URAT1, and then 200-fold working solution in 1) was diluted by 100 times to obtain a 2-fold working solution at each administration concentration. […]
First, the culture medium in the culture plate was removed, and it was washed once with Hanks buffer salt solution (without Cl^−). […] The cell lysate was taken into a scintillation vial, and 3 mL of Aquasol-2 scintillation liquid was added, and the radioactive intensity in the sample was measured by using Tri-Carb 2910TR liquid scintillation instrument. […]
Three repeats (i.e. n=3) were set for each administration concentration. Mean±standard error (SD) was calculated using statistical formulas in Microsoft® Excel 2010 software.
According to the inhibitory rate (IR) for each transporter at each administration concentration, IC50 value, the effect of the compound on the transport activity of the drug transporter was calculated through Prism5.0 in combination with the Forecast function in Microsoft® Excel 2010 software.

[4] = aqueous buffer, pH 4.5 buffer solution
[5] = aqueous buffer, pH 5.5 buffer solution
[6] = aqueous buffer, pH 6.0 buffer solution
[7] = aqueous buffer, pH 6.8 buffer solution
[8] = aqueous buffer, pH 7.4 buffer solution
[9] = female SD rats, IV single, 2.0 mg/kg
[10] = female SD rats, single intragastric (PO) 4.0 mg/kg
[11] = male SD rats, IV single, 2.0 mg/kg
[12] = male SD rats, single intragastric (PO) 4.0 mg/kg

Solubility (4 hrs) ([1]; 0.01N HCl): <LOQ
Solubility (24 hrs) ([1]; 0.01N HCl): <LOQ
Solubility (4 hrs) ([1]; 0.1N HCl): <LOQ
Solubility (24 hrs) ([1]; 0.1N HCl): <LOQ
solubility at 4 h [1, 4]: 1 µg/mL (≈ 2.09 µM)
solubility at 24 h [1, 4]: 1 µg/mL (≈ 2.09 µM)
solubility at 4 h [1, 5]: 66 µg/mL (≈ 138 µM)
solubility at 24 h [1, 5]: 66 µg/mL (≈ 138 µM)
solubility at 4 h [1, 6]: 214 µg/mL (≈ 447 µM)
solubility at 24 h [1, 6]: 204 µg/mL (≈ 426 µM)
solubility at 4 h [1, 7]: 1960 µg/mL (≈ 4100 µM)
solubility at 24 h [1, 7]: 1840 µg/mL (≈ 3850 µM)
solubility at 4 h [1, 8]: 3820 µg/mL (≈ 7990 µM)
solubility at 24 h [1, 8]: 4050 µg/mL (≈ 8460 µM)
Solubility in high pH buffer (conclusion) ([1]; high pH buffer): good solubility
Solubility (4 hrs) ([1]; pH 3.8 buffer solution): <LOQ
Solubility (24 hrs) ([1]; pH 3.8 buffer solution): <LOQ
solubility at 4 h ([1]; Purified water): 45 µg/mL (≈ 94.1 µM)
solubility at 24 h ([1]; Purified water): 58 µg/mL (≈ 121 µM)
SMILES: CC(C)(Sc1nnc(Br)n1-c1sc(C2CC2)c2c1CCC(F)(F)C2)C(=O)O [crystal form A]

AUC(0-inf) [2, 9]: 5240 ± 544 ng·h/mL
half-life ([2]; female SD rats, IV single, 2.0 mg/kg, read-out: elimination half-life (T1/2) (converted)): 3.04 ± 1.12 h
clearance [2, 9]: 6.41 ± 0.656 mL/min/kg
Vd [2, 9]: 1.55 ± 0.408 L/kg
bioavailability ([2]; female SD rats): 86%
AUC(0-inf) [2, 10]: 9010 ± 4670 ng·h/mL
half-life ([2]; female SD rats, single intragastric (PO) 4.0 mg/kg, read-out: elimination half-life (T1/2) (converted)): 3.48 ± 0.835 h
Cmax [2, 10]: 2110 ± 1350 ng/mL
Tmax [2, 10]: 0.667 ± 0.289 h
AUC(0-inf) [2, 11]: 3530 ± 723 ng·h/mL
half-life ([2]; male SD rats, IV single, 2.0 mg/kg, read-out: T1/2 (converted)): 2.52 ± 0.671 h
clearance [2, 11]: 9.76 ± 2.29 mL/min/kg
Vd [2, 11]: 1.65 ± 0.44 L/kg
bioavailability ([2]; male SD rats): 35.6%
AUC(0-inf) [2, 12]: 2510 ng·h/mL
half-life ([2]; male SD rats, single intragastric (PO) 4.0 mg/kg, read-out: elimination half-life (T1/2) (converted)): 1.72 h
Cmax [2, 12]: 1130 ± 483 ng/mL
Tmax [2, 12]: 0.417 ± 0.144 h
IC50 ([3]; HEK293A-URAT1 cells, 2 min administration, n=3, read-out: IC50, inhibition of uptake of 14C-UA mediated by URAT1): 34 nM
Inhibitory effect on URAT1 relative to reference compound lesinurad ([3]; ratio of IC50 values): about 177 times
SMILES: CC(C)(Sc1nnc(Br)n1-c1sc(C2CC2)c2c1CCC(F)(F)C2)C(=O)O [compound of formula (I)]
